# Active and inactive are the calls of the source.
# Assays:
# [1] = tested on: Streptococcus sp. 'group A'; test: Streptococcus pyogenes SK(-)GAS viability under kanamycin – luminescence, BacTiterGlo, confirmation, counter-screen for streptokinase expression inhibitor project, dose response (AID 1900); format: functional, organism-based
# [2] = target: T1, Streptokinase A (Streptococcus pyogenes serotype M1, UniProt P10520); test: viability-normalized secreted streptokinase activity reduction – plasminogen activation absorbance, OD405, dose response (AID 1914); format: functional, Streptococcus pyogenes M1 GAS;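 further: secreted streptokinase activity via plasminogen activation per viability signal from cell pellet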
# T1 sequence (P10520 whole entry): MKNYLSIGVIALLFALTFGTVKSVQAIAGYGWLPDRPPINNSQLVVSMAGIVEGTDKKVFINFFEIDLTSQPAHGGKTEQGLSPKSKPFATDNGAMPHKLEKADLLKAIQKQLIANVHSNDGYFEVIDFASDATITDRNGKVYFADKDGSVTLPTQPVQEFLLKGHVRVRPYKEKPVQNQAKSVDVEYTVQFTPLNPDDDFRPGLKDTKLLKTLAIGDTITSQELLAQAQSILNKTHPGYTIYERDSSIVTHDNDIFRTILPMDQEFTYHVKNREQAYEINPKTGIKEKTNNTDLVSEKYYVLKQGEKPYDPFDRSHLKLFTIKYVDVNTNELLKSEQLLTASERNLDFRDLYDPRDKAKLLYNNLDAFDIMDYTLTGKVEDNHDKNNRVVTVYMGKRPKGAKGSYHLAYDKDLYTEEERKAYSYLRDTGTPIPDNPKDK
# [3] = tested on: Streptococcus; test: GAS UMAA2166 growth inhibition – luminescence, BacTiterGlo, counter-screen for streptokinase expression inhibitor project, dose response (AID 1915); format: functional, organism-based;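 further: potency for reduction of bacterial viability or growth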
# [4] = target: T2, Cytochrome P450 1A2 (Homo sapiens, UniProt P05177);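 further: PubChem cytochrome P450 panel assay, CYP1A2 panel member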
# T2 sequence (P05177 whole entry): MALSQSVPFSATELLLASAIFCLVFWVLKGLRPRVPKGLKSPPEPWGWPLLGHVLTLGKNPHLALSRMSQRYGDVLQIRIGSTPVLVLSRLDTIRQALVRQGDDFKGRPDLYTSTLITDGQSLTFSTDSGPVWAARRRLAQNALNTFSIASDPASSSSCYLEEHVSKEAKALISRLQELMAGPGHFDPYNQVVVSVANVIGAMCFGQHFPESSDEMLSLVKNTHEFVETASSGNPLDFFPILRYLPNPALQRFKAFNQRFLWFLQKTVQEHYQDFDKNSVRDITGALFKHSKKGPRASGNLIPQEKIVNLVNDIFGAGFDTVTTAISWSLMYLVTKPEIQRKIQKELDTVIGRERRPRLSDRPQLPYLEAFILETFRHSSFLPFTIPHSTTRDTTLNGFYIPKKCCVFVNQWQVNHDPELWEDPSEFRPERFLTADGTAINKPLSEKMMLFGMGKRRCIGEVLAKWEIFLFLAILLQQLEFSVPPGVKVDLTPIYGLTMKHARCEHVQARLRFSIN
# [5] = target: Cytochrome P450 2C9 (Homo sapiens, UniProt P11712)
# [6] = target: Cytochrome P450 2C19 (Homo sapiens, UniProt P33261); test: Cytochrome panel assay with activity outcomes. Panel member name: p450-cyp2c19 Compounds with AC50 equal or less than 10 uM are considered active; format: functional
# [7] = target: Cytochrome P450 3A4 (Homo sapiens, UniProt P08684);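 further: CYP3A4 tested as one member of a cytochrome P450 panel screen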
# [8] = reduction of Shn3 3'UTR-driven luciferase in osteoblasts – cell-based, Clone20 osteoblasts, firefly luciferase, cherry-picked, dose response (AID 624132); format: functional;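 further: firefly luciferase luminescence from reporter carrying the Shn3 3'UTR in osteoblasts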
# [9] = non-specific 3'UTR reporter inhibition in Clone20-Shn3RL – cell-based, Renilla luciferase, cherry-picked, counter-screen for Shn3 inhibitor project, dose response (AID 624133); format: functional
# [10] = target: T3, Corticotropin-releasing factor receptor 2/Corticotropin-releasing factor-binding protein (Homo sapiens, UniProt P24387+Q13324); test: activators of CRF receptor 2 with binding protein – uHTS hits, confirmation (AID 602473); format: functional; settings: read-out: EC50_Mean
# T3 sequence (Q13324 whole entry): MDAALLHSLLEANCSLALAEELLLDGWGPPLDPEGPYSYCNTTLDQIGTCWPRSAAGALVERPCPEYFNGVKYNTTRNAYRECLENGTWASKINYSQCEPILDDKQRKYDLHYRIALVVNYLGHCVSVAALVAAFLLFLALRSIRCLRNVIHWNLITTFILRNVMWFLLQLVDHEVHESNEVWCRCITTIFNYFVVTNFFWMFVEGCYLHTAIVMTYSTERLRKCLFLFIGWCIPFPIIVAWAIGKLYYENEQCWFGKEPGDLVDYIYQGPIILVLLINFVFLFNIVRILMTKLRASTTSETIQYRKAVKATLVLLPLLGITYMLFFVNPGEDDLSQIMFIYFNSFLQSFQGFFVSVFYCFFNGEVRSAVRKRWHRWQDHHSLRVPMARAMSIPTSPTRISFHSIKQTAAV
# T3 sequence (P24387 whole entry): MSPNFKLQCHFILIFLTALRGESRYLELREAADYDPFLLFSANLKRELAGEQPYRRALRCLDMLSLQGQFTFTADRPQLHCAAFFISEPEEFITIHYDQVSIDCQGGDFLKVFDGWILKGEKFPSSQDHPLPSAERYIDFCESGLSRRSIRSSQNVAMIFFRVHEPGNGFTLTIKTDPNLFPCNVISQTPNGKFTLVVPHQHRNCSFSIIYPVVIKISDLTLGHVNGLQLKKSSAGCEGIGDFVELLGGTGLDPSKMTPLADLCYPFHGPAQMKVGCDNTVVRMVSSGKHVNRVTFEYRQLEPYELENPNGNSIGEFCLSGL
# [11] = Luminescence Cell-Based Dose Retest to Confirm Inhibitors of Cancer Stem Cells. [Related pubchem assays (depositor defined):AID2717, AID2721]; format: functional; settings: Homo sapiens
# [12] = viability of uninfected HEp-2 cells – cell-based, HTS, cytotoxicity control for RSV inhibitor project, dose response (AID 2410); format: functional; settings: human respiratory syncytial virus
# [13] = Trypanosoma cruzi growth suppression in host cells – NIH3T3 host cells, beta-gal luminescence, confirmation (AID 2044); format: functional, cell-based;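 further: intracellular parasites grown in NIH/3T3 mouse fibroblasts as host cells; luminescent beta-galactosidase reporter signal from transgenic T. cruzi replicating inside host cells; inhibitors lower the luminescence signal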
# [14] = NIH3T3 cell viability loss – ATP luminescence, mouse fibroblasts, counter-screen, dose response (AID 2010); format: functional, cell-based;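 further: cells exposed to compound for about 90 hours before reading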
# [15] = target: Paired box protein Pax-8 (Homo sapiens, UniProt Q06710); test: PAX8 transcriptional activity inhibition in RMG-I – RMG-I cells, luciferase, cherry-pick, dose response (AID 687027); format: functional, cell-based;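 further: luciferase reporter driven by Pax8 target thyroperoxidase promoter measured by SteadyGlo luminescence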
# Chain of Paired box protein Pax-8 (Q06710 whole entry): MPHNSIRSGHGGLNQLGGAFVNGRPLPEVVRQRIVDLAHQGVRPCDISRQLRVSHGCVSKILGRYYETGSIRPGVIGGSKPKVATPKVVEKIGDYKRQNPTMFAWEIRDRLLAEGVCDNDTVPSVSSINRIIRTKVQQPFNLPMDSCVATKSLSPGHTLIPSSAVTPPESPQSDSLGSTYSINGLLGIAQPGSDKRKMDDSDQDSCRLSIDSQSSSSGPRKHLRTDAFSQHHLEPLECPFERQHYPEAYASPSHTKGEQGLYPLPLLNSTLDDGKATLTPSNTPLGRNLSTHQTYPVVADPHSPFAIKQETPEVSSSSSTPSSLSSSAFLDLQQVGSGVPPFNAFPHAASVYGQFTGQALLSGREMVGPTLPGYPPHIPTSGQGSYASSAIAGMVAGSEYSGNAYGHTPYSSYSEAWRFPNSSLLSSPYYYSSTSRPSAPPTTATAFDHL
# Chain of Cytochrome P450 2C19 (P33261 whole entry): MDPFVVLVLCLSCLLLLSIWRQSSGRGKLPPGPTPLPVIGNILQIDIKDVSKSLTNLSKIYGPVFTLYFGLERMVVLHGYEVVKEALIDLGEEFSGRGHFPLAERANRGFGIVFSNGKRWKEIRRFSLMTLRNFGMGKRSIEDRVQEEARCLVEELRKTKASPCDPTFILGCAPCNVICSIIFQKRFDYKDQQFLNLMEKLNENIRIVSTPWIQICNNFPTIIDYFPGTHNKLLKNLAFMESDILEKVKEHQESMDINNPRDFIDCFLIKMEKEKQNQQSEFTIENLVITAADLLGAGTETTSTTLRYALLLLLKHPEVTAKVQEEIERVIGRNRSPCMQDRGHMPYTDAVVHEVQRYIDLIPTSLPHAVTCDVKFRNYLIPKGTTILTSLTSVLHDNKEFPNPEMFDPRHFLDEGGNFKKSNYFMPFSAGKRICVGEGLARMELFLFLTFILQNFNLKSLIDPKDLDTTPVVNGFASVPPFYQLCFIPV
# Chain of Cytochrome P450 2C9 (P11712 whole entry): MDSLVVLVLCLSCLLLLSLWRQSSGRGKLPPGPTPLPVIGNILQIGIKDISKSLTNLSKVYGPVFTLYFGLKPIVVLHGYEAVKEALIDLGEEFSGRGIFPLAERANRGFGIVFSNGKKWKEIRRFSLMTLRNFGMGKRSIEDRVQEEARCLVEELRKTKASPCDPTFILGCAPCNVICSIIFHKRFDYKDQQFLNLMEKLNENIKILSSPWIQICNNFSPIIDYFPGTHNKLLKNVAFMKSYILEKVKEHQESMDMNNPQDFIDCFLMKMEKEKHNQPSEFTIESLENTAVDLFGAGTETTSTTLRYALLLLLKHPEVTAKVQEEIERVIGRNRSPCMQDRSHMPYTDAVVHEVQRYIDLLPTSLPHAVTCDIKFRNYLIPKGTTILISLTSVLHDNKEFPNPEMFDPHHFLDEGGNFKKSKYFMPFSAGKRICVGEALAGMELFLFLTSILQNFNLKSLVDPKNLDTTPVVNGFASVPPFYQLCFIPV
# Chain of Cytochrome P450 3A4 (P08684 whole entry): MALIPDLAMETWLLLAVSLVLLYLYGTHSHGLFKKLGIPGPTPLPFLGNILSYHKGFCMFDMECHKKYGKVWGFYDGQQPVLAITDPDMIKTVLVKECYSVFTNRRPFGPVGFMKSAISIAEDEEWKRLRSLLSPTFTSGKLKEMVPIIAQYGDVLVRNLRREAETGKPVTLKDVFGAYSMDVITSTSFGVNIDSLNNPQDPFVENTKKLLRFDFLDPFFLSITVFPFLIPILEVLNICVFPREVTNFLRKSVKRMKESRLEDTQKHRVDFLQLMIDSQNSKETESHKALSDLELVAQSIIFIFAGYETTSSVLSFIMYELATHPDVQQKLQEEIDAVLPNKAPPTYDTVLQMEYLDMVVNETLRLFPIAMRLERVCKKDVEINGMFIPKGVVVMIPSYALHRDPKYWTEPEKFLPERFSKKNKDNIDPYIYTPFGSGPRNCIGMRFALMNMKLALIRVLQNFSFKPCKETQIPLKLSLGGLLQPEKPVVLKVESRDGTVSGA
compound,measurement,setting,value
CCCCCCCCCc1nc2sc3c(c2c(=O)n1NC(=O)c1ccc([N+](=O)[O-])cc1)CC(C)(C)OC3,EC50,[1],3.71 µM (active)
same,EC50,[2],2.17 µM (active)
same,EC50,[3],39.8 µM (active)
COc1ccc(-n2c(=O)c(C)nc3cnc(Nc4ccccc4)nc32)cc1,AC50,[4],5.01 µM (inconclusive)
same,AC50,[5],20 µM (inconclusive)
CCOC(=O)CSc1nnc(Cc2cc(O)nc(O)n2)n1-c1cccc(OC)c1,AC50,[6],inconclusive
same,AC50,[7],22.4 µM (inconclusive)
Cc1cccc(C)c1OC1(c2ccccc2)OC(=O)c2ccccc21 (stereo not given),EC50,[1],18.4 µM (active)
same,EC50,[2],12.2 µM (active)
same,EC50,[3],> 150 µM (not active)
CC12CC(O)C3c4ccc(O)cc4CCC3C1CCC2=O (stereo not given),AC50,[8],> 70 µM (inactive)
same,AC50,[9],26.8 µM (active)
COc1ccc(NP(=O)(Oc2ccc(Cl)cc2)Oc2ccc(Cl)cc2)cc1OC,EC50,[1],12.4 µM (active)
same,EC50,[2],21.1 µM (active)
same,EC50,[3],16.3 µM (active)
CCCn1nc(Oc2nc(NCC)nc(NCC)n2)ccc1=O,AC50,[6]; read-out: AC50,31.6 µM (inconclusive)
same,AC50,[4],15.8 µM (inconclusive)
COCCCNC(=S)NNC(=S)Nc1cccc(Cl)c1,EC50,[2],> 150 µM (not active)
CCCCn1cnc2c(cnn2-c2ccc(F)cc2)c1=O,AC50,[6]; read-out: AC50,2.51 µM (inconclusive)
CCC1(c2ccc(F)cc2)NC(=O)N(CC(=O)N2CCc3ccccc32)C1=O (stereo not given),EC50,[10],11 µM (active)
Cc1cccc(OC2(c3ccccc3)OC(=O)c3ccccc32)c1C (stereo not given),AC50,[4],14.1 µM (inconclusive)
same,AC50,[7],28.2 µM (inconclusive)
Cc1cccc(NC(=NS(=O)(=O)c2ccccc2)C(F)(F)F)c1,AC50,[6]; read-out: AC50,22.4 µM (inconclusive)
same,AC50,[7],25.1 µM (inconclusive)
CCc1nc2c3cnn(-c4cc(Cl)ccc4C)c3ncn2n1,EC50,[1],> 150 µM (not active)
same,EC50,[2],> 150 µM (not active)
same,EC50,[3],> 150 µM (not active)
Cc1csc(NC(=O)c2c(O)c3c(n(CC(C)C)c2=O)CCCC3)n1,EC50,[1],11 µM (active)
same,EC50,[2],> 150 µM (not active)
same,EC50,[3],17.3 µM (active)
CC1CCCCN1c1cc(C#N)c(C#N)cc1[N+](=O)[O-] (stereo not given),AC50,[11],0.174 µM (active)
same,AC50,[4],3.16 µM (inconclusive)
same,AC50,[7],15.8 µM (inconclusive)
same,AC50,[5],5.01 µM (inconclusive)
Cc1nnc(-c2cnn(-c3ccccc3)c2N)n1Cc1ccncc1,AC50,[6]; read-out: AC50,11.2 µM (inconclusive)
same,AC50,[4],11.2 µM (inconclusive)
same,AC50,[7],15.8 µM (inconclusive)
COc1ccccc1N1CCN(C(=O)c2sc3ncnc(N4CCN(c5ccccn5)CC4)c3c2C)CC1,CC50,[12],12.2 µM (active)
O=C(Nc1cccc2ncccc12)c1cccc(F)c1,AC50,[4],15.8 µM (inconclusive)
same,AC50,[7],22.4 µM (inconclusive)
CN(Cc1ccco1)c1ccnc(-c2ccoc2)n1,AC50,[6]; read-out: AC50,25.1 µM (inconclusive)
N=c1c(-c2nc3ccccc3[nH]2)cc(C(=O)c2cccs2)nn1-c1ccccc1,CC50,[12],15.3 µM (active)
same,EC50,[1],1.51 µM (active)
same,EC50,[13],0.39 µM (active)
same,EC50,[14],> 60 µM (not active)
same,EC50,[3],5.63 µM (active)
CCc1ccccc1S(=O)(=O)Cc1ccc(C(=O)N2CCN(c3ccccc3OC)CC2)o1,CC50,[12],> 50 µM (active)
CCCCCn1c(SCc2ccncc2)nc2cc(C(=O)NCc3ccco3)ccc2c1=O,CC50,[12],48.3 µM (active)
C[C@@H]1CN([C@H](C)CO)C(=O)c2cc(NC(=O)Nc3ccc(C(F)(F)F)cc3)ccc2O[C@@H](C)CCCCO[C@H]1CN(C)S(=O)(=O)c1ccc(F)cc1,AC50,[15],6.53 µM (active)
O=C(Nc1ccc(N2CCCCC2)c(Cl)c1)c1nc[nH]n1,CC50,[12],16.6 µM (active)
COc1cc(OC)cc(C(=O)Nc2nnc(N=C(S)Nc3ccccc3)s2)c1,CC50,[12],8.31 µM (active)
same,EC50,[1],9.71 µM (active)
same,EC50,[3],30.7 µM (active)
O=C(O)/C=C\c1ccc(Cn2ccnc2)cc1,AC50,[4],12.6 µM (inconclusive)
COCCn1c(=O)c(-c2ccc(F)cc2)nc2cnc(Nc3cccc(OC)c3)nc21,AC50,[4],3.16 µM (inconclusive)
C[C@@H](CN1CCC(Cc2ccccc2)CC1)[C@H](O)c1ccc(O)cc1,AC50,[4],12.6 µM (inconclusive)
CCCCCCNC(=O)C(C#N)c1nc2ccccc2nc1N1CCCC1 (stereo not given),EC50,[10],5.12 µM (active)
CCCCC1=NN2C(=N)CC(=O)N=C2S1,AC50,[4],25.1 µM (inconclusive)
same,AC50,[5],2.51 µM (inconclusive)
COCCNC(=O)C(c1ccc(C)o1)N(CC1CCCO1)C(=O)Cn1nnc2ccccc21 (stereo not given),AC50,[6],inconclusive
same,AC50,[4],12.6 µM (inconclusive)
same,AC50,[7],15.8 µM (inconclusive)
COc1ccc(-c2nn(-c3ccccc3)cc2/C=N/NS(=O)(=O)c2ccccc2)cc1,CC50,[12],17.8 µM (active)
CCC(C)Nc1nc(OCC(F)(F)F)nc(OCC(F)(F)F)n1 (stereo not given),AC50,[6]; read-out: AC50,3.16 µM (inconclusive)
COC(=O)c1c(-c2ccc(C)cc2)csc1NC(=O)c1c(-c2ccccc2)noc1C,CC50,[12],26.5 µM (active)
COc1cc(OC)cc(C(=O)Nc2nnc(NC(=S)Nc3ccccc3)s2)c1,EC50,[2],> 150 µM (not active)
CN(Cc1c(F)cccc1Cl)C(=O)CCc1c[nH]c2ccccc12,CC50,[12],30 µM (active)
O=C(c1ccco1)N1CCC2(CCCN(c3ccccn3)C2)CC1,AC50,[4],10 µM (inconclusive)
same,AC50,[7],15.8 µM (inconclusive)
C[C@@H]1CCCCO[C@H](CN(C)C(=O)C2CCCCC2)[C@@H](C)CN([C@@H](C)CO)C(=O)c2cc(NC(=O)Nc3ccccc3)ccc2O1,AC50,[15],5.39 µM (active)
COC(=O)N1CCC2(CCCN(c3ccncc3)C2)CC1,AC50,[6],inconclusive
C/C(N)=C(/C#N)C(=O)CSc1nnc(COc2cc(C)ccc2C)o1,AC50,[4],4.47 µM (inconclusive)
same,AC50,[5],7.08 µM (inconclusive)
Cc1ccc(NC(S)=NCc2ccc3[nH]c4c(c3c2)CCCC4)cc1,CC50,[12],9.29 µM (active)
N#CC1(c2ccc(NC(=O)c3ccccc3F)cc2)CCCC1,CC50,[12],> 50 µM (active)
CN(Cc1cc(Br)cc(Br)c1O)Cc1c(O)ccc2ccccc12,AC50,[4],1.26 µM (inconclusive)
same,AC50,[7],3.98 µM (inconclusive)
same,AC50,[5],3.16 µM (inconclusive)
Cn1c(SCc2ccccc2Cl)nc2c1c(=O)[nH]c(=O)n2C,CC50,[12],> 50 µM (active)
O=C1NN=C(c2ccc(Cl)cc2)CC1c1cccc(Cl)c1 (stereo not given),CC50,[12],30.2 µM (active)

# Source: ChEMBL document CHEMBL1201862, “PubChem BioAssay data set” (2004)
